Measured values from patent publication US20230332197A1, “NUCLEOSIDES AND NUCLEOTIDES WITH 3' VINYL BLOCKING GROUP” (Illumina Singapore Pte. Ltd., priority 2022, published 2023).

Legend:
[1] = target: T1, commercially available TdT (Bos taurus, UniProt P06526); assay: Template-independent enzymatic synthesis of oligonucleotides with TdT, gel electrophoresis; type: biochemical; details: for nucleic acid formed from primer by TdT (extent of nucleotide addition): 5 or 10 minutes at room temperature
T1 construct: purchased
Experimental: A preliminary test of template-independent synthesis of oligonucleotides using a commercially available TdT was conducted. A primer strand with a FAM fluorescent tag at the 5′ end (SED ID No. 2) was introduced.
Three different nucleotides were included, depending on the test condition: a 3′ vinyl blocked dTTP (“3VT”), a 3′-vinyl blocked dTTP that is pre-heated at 60° C. for 5 minutes (“HVT”), and an unaltered dTTP with 3′ hydroxy (“dT”). HVT condition was used to test the thermal stability of the nucleotide. Each nucleotide was allowed to react with the template in the presence of the TdT for 5 or 10 minutes at room temperature.
A control was run simultaneously, which included a primer with one added nucleotide. […] Without being bound to a particular theory, it is believed that the 3′ blocking group on the 3VT nucleotide prevented synthesis beyond the addition of one nucleotide.

Pol 812 = assay: Template-dependent incorporation of nucleotide into primer strand by DNA polymerase, gel electrophoresis; type: biochemical, 9° N; details: Pol 812 0.12 mg/mL, Mg2+ approximately 4 mM, 60° C. for 10 minutes
From the text: (§1) In this incorporation experiment, several DNA polymerases were used to test the feasibility of incorporating a 3′vinyl dTTP into a primer strand through template-dependent synthesis. For each test, 3′vinyl dTTP or an unblocked dTTP was exposed to one polymerase in the presence of a template strand having five A nucleotides overhang at the 5′ end, and the complementary primer strand has a fluorescent tag (FAM) at the 5′ end for visualization purposes. The DNA polymerases tested were Pol 812, Pol 963, Pol 1558, and Pol 1901, each at 0.12 mg/mL. The amino acid sequences of these mutants of 9° N polymerases are disclosed, for example, in U.S. Patent Publication Nos. 2020/0131484 A1 and 2020/0181587 A1, both of which are incorporated by reference herein in their entireties. The nucleotides include a 3′vinyl dTTP
(§2) The negative control nucleotide included a vinyl blocking group attached to the nitrogen atom of the T base typically involved in base-pair binding. Thus, it was expected that the negative control nucleotide would not be able to bind with the available adenosine bases of the template strand. The unaltered dTTP, on the other hand, was expected to be incorporated into the primer strand and could therefore act as a control for 5 incorporations.
(§3) For each test reaction, Mg^2+ concentration was at approximately 4 mM, while the polymerase of choice was at a concentration of 0.12 mg/mL. The reactions also had 20 μmol of nucleotide, nucleotide 1 or nucleotide 2 as diagrammed, and 4 μmol of the template strand (SEQ ID No. 1) and 4 μmol of the primer strand (SEQ ID No. 2). The reaction was carried at 60° C. for 10 minutes.
(§4) Lanes 4, 7, 10, and 13 show the nucleic acids formed when nucleotide 1 was available. Lanes 5, 8, 11, and 14 show the nucleic acids formed when nucleotide 2 was available. Lanes 6, 9, 12, and […] show the nucleic acids formed when unaltered dTTP was available.

Pol 1901 = assay: as above; type: biochemical, 9° N; details: Pol 1901 0.12 mg/mL, Mg2+ approximately 4 mM, 60° C. for 10 minutes
From the text: as §1, §2, §3, §4

Pol 1558 = assay: as above; type: biochemical, 9° N; details: Pol 1558 0.12 mg/mL, Mg2+ approximately 4 mM, 60° C. for 10 minutes
From the text: as §1, §2, §3, §4

[2] = tested on: DNA polymerases Pol 812, Pol 963, Pol 1558, and Pol 1901; assay: Template-dependent incorporation of nucleotide into primer strand by DNA polymerases, gel electrophoresis; type: biochemical, 9° N; details: polymerase 0.12 mg/mL, Mg2+ approximately 4 mM, 60° C. for 10 minutes, template with five A overhang
From the text: as §1, §2
For each test reaction, Mg^2+ concentration was at approximately 4 mM, while the polymerase of choice was at a concentration of 0.12 mg/mL. […]

[3] = Preliminary deblocking test of 3′ vinyl group with tetrazine reagent, HPLC UV absorption at 280 nm; type: physicochemical; details: 50 μM substrate, 5 mM methyltetrazine propylamine HCl, 0 to 60 Secs
Experimental: 50 μM of 3′ vinyl thymidine monophosphate (TMP) was deblocked in the presence of 5 mM of methyltetrazine propylamine HCl.

T1 sequence (P06526 whole entry): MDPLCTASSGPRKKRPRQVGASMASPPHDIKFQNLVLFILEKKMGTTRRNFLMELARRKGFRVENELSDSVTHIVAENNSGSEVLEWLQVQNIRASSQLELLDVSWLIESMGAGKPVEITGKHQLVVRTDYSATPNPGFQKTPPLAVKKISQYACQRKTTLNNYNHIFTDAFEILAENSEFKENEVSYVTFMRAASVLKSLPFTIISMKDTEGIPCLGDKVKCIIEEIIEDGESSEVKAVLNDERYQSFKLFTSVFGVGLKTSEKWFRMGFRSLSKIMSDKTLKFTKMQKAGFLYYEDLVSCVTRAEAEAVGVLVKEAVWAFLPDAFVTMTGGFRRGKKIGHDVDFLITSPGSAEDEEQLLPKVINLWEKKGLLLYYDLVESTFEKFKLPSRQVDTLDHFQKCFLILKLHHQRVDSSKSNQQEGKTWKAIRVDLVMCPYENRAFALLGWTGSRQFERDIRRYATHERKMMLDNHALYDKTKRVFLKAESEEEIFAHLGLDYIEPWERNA

SMILES	nucleic acid formed from primer by TdT (extent of nucleotide addition) [1]	nucleic acid formed from primer by TdT after pre-heating of the nucleotide (thermal stability) ([1]; nucleotide pre-heated at 60° C. for 5 minutes, reaction 5 or 10 minutes at room temperature)	capability of incorporating the nucleotide into the primer strand, compared among the four polymerases (Pol 812)	capability of incorporating the nucleotide into the primer strand, compared among the four polymerases (Pol 1901)	capability of incorporating the nucleotide into the primer strand, compared among the four polymerases (Pol 1558)	number of nucleotides incorporated into the primer strand [2]	deblocking of 3′ vinyl group to 3′OH TMP over time [3]
C=CO[C@H]1C[C@H](n2cc(C)c(=O)[nH]c2=O)O[C@@H]1COP(=O)(O)OP(=O)(O)OP(=O)(O)O [nucleotide 1]	addition of just one additional nucleotide	addition of just one additional nucleotide	best performance	least capable of the four	best performance	–	–
Cc1cn([C@H]2C[C@H](O)[C@@H](COP(=O)(O)OP(=O)(O)OP(=O)(O)O)O2)c(=O)[nH]c1=O [unaltered dTTP, Deoxythymidine triphosphate, reference compound]	much longer nucleic acids	–	–	–	–	≤ 5	–
C=C[C@]1(O)C[C@H](n2cc(C)c(=O)[nH]c2=O)O[C@@H]1COP(=O)(O)O [3′ vinyl thymidine monophosphate (TMP), 3′ vinyl thymidine monophosphate]	–	–	–	–	–	–	all of the 3′vinyl TMP have been consumed or deblocked
